Assay [1] has as its system HL-60 human leukemia. Put plainly: MTT in vitro cytotoxicity. To be noted: Homo sapiens, HL-60, 96 h, read-out: IC50 value Leukemia HL-60.
The subject of assay [2] is caspase-6. Put plainly: Caspase-6 colorimetric assay in MOLT-4 cells. The assay is classed as cell-based, Human. To be noted: 5 µg/ml, 24 hrs. As to the method:
Caspase 3 activity was measured by using caspase-3 colorimetric Assay kit (R&D Systems USA). Briefly, MOLT-4 (∼2x10^6cells) were treated with Compound 3f, camptothecin (5µM) and staurosporine (1µM) for 24h, and then cell centrifuged and pellet was lysed using 50µL cell lysis buffer. Cell lysates were mixed with 10µL of dithiothreitol (DTT) and 50µL reaction buffer (2X) containing 5 µL DEVD-pNA, a caspase-3 substrate, and incubated upto 24 hr at 37°C. Additional controls were included in this assay containing no cell lysate without substrate Enzyme-catalyzed release of pNA was monitored using a microplate reader at 405 nm (Fig. 2). Likewise, Caspase 6 activity was also measured using caspase-6 colorimetric Assay kit (R&D Systems USA). However, the enzyme and enzyme substrate (VEID-pNA) were different (Fig. 3). Treatment of the cells with Compound 3f induced caspase-3/6 activities. […] (Fig 2).

Assay [3] has as its system S-180 cells. In words: 3H-thymidine and 3H-uridine incorporation in vitro (DNA and RNA synthesis).
Assay [4] concerns MOLT-4 cells. Put plainly: Light and transmission electron microscopy of apoptosis. The assay is classed as cell-based, Human. As to the method:
Cell culture and treatment: Human T lymphoblast; acute lymphoblastic leukemia line MOLT-4 was procured from NCCS, Pune, India. The cells were cultured in RPMI-1640 medium supplemented with 10% FCS, 100 units penicillin and 100 µg streptomycin per ml. Cells were grown in CO2 incubator (SHEL-LAB, USA) at 37° C, 90% humidity and 5% CO2 gas environment and were treated during sub-confluent stage with Compound 3f dissolved in DMSO at the concentration of 1, 5 and 10µM while control cells received only the vehicle (DMSO < 0.5%).
Light and Transmission Electron Microscopy: MOLT-4 control, Compound 3f treated cells at different time intervals were washed in phosphate buffered saline, centrifuged at 1500 rpm for ten minutes and the pellets were divided into 1mm^3 pieces and fixed immediately in 2.5% glutaraldehyde in 0.1M phosphate buffer (pH 7.2) for 2 hr at 4°C, post-fixed with 1% OsO4 in the same buffer for 2 hr, dehydrated with acetone, cleared in propylene oxide and embedded in Epon-812^6 [Hayat, M. A. (1981) Principles and Techniques of Electron Microscopy. Biological Applications Vol. 1. Edward Arnold Publishers, London, U.K.] Semithin (1µm) sections were cut, stained with toluidine blue and studied under Olympus Research Microscope (VANOX). The photography was done using Olympus Digital Camera (C4000).
Ultrathin sections of silver colour (60-90 nm) were cut on a LKB ultramicrotome (Ultrotome-IV, mounted on copper grids and stained with uranyl acetate and lead citrate. The sections were viewed and photographed in a JEOL-100CXII electron microscope at 60 kV.
Detection of apoptosis in tissue sections. Cell Tissue Res. 301: 19-31] at different time intervals to study the mechanism of cell death. […] Compound 3f treated MOLT-4 cells, the condensation of the nuclear material, with a marked accumulation of densely stained chromatin was seen. In majority of the treated cells the chromatin was seen typically at the edge of the nucleus. This was accompanied by cell shrinkage and cytoplasmic vacuoles. The disintegration of the nucleus into smaller fragments was also seen (Fig. 7B). […]

In assay [5] the test system is S-180. In words: In vivo tumor growth inhibition study. Also noted: species or system mice. The text has this:
Compound 3f was selected for tumor growth inhibition study. 18 mice each were taken for treated and control groups and inoculated with 1 x 10^6 S-180 cells. After sacrificing mice from the respective groups sequentially on days 9, 14 and 19 following drug treatment on day 1-7 at doses indicated, the ascites fluid from peritoneal cavities of animals were quantitatively transferred and the peritoneal cavities were washed with measured volume of physiological saline. The total number of tumor cells were counted and ascites fluid volume were measured. Averages ( x ± S.E.M.) were made of these two parameters and the percentage inhibitions [(1 - T/C) ×100] were calculated for each dose.

In assay [6] the test system is S-180. Put plainly: In vivo anticancer activity: increase in median survival time. Also noted: species or system Swiss albino male mice. To be noted: S-180, 7 injns.

We go through one compound from patent EP2118065B1, “Substituted 1H-benz[de]isoquinoline-1,3-diones” (priority 2007, dated 2008).

SMILES strings stand for the structures.

Broadly, the IC50 is the concentration at which inhibition is half-maximal. Broadly, the inhibition is the drop in the measured response relative to a control, in per cent. Turning to `O=C1c2cccc3c([N+](=O)[O-])ccc(c23)C(=O)N1CCCCl` [Compound 3f, 6-Nitro-2-[3-(Chloropropyl)]-1H-benz[de]isoquinoline-1,3-dione], in assay [1], the IC50 is 300 nM. In addition, in assay [2], the Caspase-6 activity entry is on record as “maximum at 5 µg/ml for 24 hrs”. For the same compound, the inhibition at 8 µM in assay [3] (Mus musculus, S-180, read-out: DNA synthesis inhibition (3H-thymidine uptake)) amounted to 90%. In addition, the “RNA synthesis inhibition (3H-uridine uptake)” value in assay [3] (S-180 cells, 8 µM, 1 hr incubation, with respect to control) was determined as 80%. The “apoptotic cells by light microscopy” value in assay [4] (1µM) is on record as “no apoptotic cells were observed”; in assay [4] (5µM, 24 - 48 hr) it was “only a-few apoptotic cells were observed”; in assay [4] (10µM, 36 hrs), “seen in majority of cells”. Moreover, the “inhibition in S-180 tumor growth” value in assay [5] (19th day, after drug treatment on day 1-7) was “about 20%”; in assay [5] (day 9, after drug treatment on day 1-7) it was 84%. Also, the “MST” value in assay [6] (30 mg/kg i.p., days 1-7) came to 25.0 days; in assay [6] (60 mg/kg i.p., days 1-7) it was 29.0 days; in assay [6] (60 mg/kg i.p., days 5-11), 21.0 days.
